Experimental data: ChEMBL document CHEMBL1134874, “Identification of a novel partial inhibitor of dopamine transporter among 4-substituted 2-phenylquinazolines” (Bioorg Med Chem Lett, 2002)

Tests used:
[1] = target: Sodium-dependent dopamine transporter (Rattus norvegicus, UniProt P23977); assay: Displacement of [125I]RTI-55 from Dopamine transporter of rat caudate membranes; format: cell membranes, Membrane
[2] = target: Sodium-dependent serotonin transporter (Rattus norvegicus, UniProt P31652); assay: Inhibition of [125I]RTI-55 binding to Serotonin transporter of rat caudate membranes; format: cell membranes, Membrane
Sodium-dependent serotonin transporter, sequence (P31652 whole entry): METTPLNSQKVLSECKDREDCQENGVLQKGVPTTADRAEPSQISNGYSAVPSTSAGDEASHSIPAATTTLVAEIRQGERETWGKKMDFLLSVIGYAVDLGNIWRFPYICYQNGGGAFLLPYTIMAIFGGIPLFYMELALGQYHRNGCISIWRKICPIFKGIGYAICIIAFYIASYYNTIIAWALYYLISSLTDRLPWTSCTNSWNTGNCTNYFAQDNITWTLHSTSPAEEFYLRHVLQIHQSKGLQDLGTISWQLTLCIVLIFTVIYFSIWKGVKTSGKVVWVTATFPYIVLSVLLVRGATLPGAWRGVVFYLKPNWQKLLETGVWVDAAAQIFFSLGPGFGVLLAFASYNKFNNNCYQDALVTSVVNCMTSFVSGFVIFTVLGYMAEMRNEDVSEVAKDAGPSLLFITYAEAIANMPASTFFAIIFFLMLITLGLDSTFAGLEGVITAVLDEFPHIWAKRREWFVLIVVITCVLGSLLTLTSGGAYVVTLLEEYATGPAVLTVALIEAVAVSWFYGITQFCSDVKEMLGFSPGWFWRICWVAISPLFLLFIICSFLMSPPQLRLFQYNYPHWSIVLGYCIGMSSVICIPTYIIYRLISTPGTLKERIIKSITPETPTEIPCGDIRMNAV

Sodium-dependent dopamine transporter, sequence (P23977 whole entry): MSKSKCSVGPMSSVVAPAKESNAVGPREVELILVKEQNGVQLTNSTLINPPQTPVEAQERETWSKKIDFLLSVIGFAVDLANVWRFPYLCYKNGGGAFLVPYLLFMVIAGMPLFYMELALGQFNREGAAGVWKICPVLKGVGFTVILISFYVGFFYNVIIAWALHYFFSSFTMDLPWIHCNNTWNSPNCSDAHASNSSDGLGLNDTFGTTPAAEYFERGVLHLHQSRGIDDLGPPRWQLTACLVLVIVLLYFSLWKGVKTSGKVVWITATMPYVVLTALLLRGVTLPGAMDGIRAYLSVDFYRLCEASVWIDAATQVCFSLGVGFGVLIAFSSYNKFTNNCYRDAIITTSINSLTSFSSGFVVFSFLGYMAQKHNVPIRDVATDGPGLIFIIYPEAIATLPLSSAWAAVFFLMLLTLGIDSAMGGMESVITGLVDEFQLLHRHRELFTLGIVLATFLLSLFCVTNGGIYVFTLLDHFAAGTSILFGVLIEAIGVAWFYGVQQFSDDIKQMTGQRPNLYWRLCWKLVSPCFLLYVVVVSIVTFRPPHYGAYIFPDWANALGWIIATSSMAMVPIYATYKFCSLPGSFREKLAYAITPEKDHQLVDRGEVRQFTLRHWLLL

| SMILES | Ki [1] [µM] | Ki [2] [µM] |
| --- | --- | --- |
| CN(C)CCCNc1nc(-c2ccccc2)nc2ccccc12 | > 10 | > 10 |
| c1ccc(-c2nc(NC(c3ccccc3)c3ccccc3)c3ccccc3n2)cc1 | 0.53 | > 10 |
| c1ccc(-c2nc(NCC(c3ccccc3)c3ccccc3)c3ccccc3n2)cc1 | 5.4 | > 10 |
| c1ccc(-c2nc(SC(c3ccccc3)c3ccccc3)c3ccccc3n2)cc1 | > 10 | > 10 |
| CN1CCC(Oc2nc(-c3ccccc3)nc3ccccc23)CC1 | 9.1 | > 10 |
| CN(C)CCCOc1nc(-c2ccccc2)nc2ccccc12 |  | > 10 |
| CN(C)CCCSc1nc(-c2ccccc2)nc2ccccc12 | 6.1 | 9.6 |
| CN1C2CCC1CC(Oc1nc(-c3ccccc3)nc3ccccc13)C2 (stereo not drawn) | 5.1 | 5.1 |
| C[C@@H](Nc1nc(-c2ccccc2)nc2ccccc12)c1ccccc1 | 6.1 | > 10 |
| c1ccc(CNc2nc(-c3ccccc3)nc3ccccc23)cc1 | 7.9 | > 10 |
| C[C@H](Nc1nc(-c2ccccc2)nc2ccccc12)c1ccccc1 | 1.8 | > 10 |
| c1ccc(-c2nc(NCCC(c3ccccc3)c3ccccc3)c3ccccc3n2)cc1 | > 10 | > 10 |
